{
  "source": "patent US20240325420A1",
  "about": "“COMPOSITION INCLUDING PAEONIFLORIN FOR PREVENTION OR TREATMENT OF CACHEXIA AND MUSCLE LOSS” (CHUNG ANG UNIVERSITY INDUSTRY ACADEMIC COOPERATION …, priority 2021, published 2024)",
  "format_in_all_cases": "in vivo",
  "key": {"[1]": {"tested_on": "muscle-specific ubiquitin E3 ligases (MuRF1 and MAFbx)", "test": "Protein levels of MuRF1 and MAFbx in gastrocnemius muscle by Western blotting", "settings": "C57BL/6 mice, cisplatin-treated, Pae 10 and Pae 20 vs vehicle", "description": "(§1) In addition, cisplatin-treated mice orally administered the same volume of distilled water were designated as the vehicle group. After completion of drug treatment, the mice of each group were euthanized with 10 mg/kg alfaxalone (Jurox, Rutherford, Australia). Blood was collected in test tubes containing EDTA, and centrifuged, and plasma was separated therefrom. Gastrocnemius and quadriceps skeletal muscles were dissected and weighed. The skeletal muscles were rapidly frozen in liquid nitrogen to be used for RT-qPCR, Western blotting, and ELISA.\nProteins were extracted from skeletal muscle using NucleoSpin kits (Macherey-Nagel, Duren, Germany) and quantified using the BCA Protein Assay Kit (Pierce, Rockford, IL, USA). Anti-β-actin antibody was used to quantify protein loading. For myosin protein (MyHC, myosin heavy chain), myogenic factor (MyoD), and NF-κB signaling system (p-IKK, IKK, p-IκB, and IκB), protein levels in the gastrocnemius muscle were measured by Western blotting. Band intensities were quantified using ImageJ software (NIH, Bethesda, MD, USA).\nIn order to measure the mRNA and protein levels of major factors involved in muscle loss, muscle contraction, and muscle differentiation, the mRNA and protein levels in the skeletal muscle tissues from C57BL/6 mice were measured by real-time PCR and Western blotting."}, "[2]": {"tested_on": "Balb/c mice with cisplatin-induced cachexia", "test": "Body weight and muscle mass in cisplatin-treated Balb/c mice", "description": "The animal experiments were performed in accordance with internationally accepted principles for laboratory animal use and care, and the corresponding study protocol was reviewed and approved by the Institutional Animal Care and Use Committee (IACUC) at Chung-Ang University (approval #2021-00022). Four-week-old female C57BL/6 mice and Balb/c mice were purchased from Raonbio Inc. (Yongin, Korea) and were provided with standard laboratory diet and water ad libitum in the animal facility of Chung-Ang University. After a week of acclimation, the mice were intraperitoneally injected three times with 3 mg/kg/day cisplatin, suspended in 200 μL saline, every other day. Control group mice (sham-treated mice) were injected with the same volume of saline under the same regimen. The cisplatin-treated groups were orally administered paeoniflroin (Pae) or megestrol acetate (MA), suspended in 200 μL distilled water, every day until euthanasia.\nSpecifically, the cisplatin-treated groups were orally administered paeoniflorin (prepared in Example 1) at a dose of 5 (Pae 5 group), 10 (Pae 10 group), or 20 (Pae 20 group) mg/kg once daily for 9 days. The comparative drug-treated group was orally administered megestrol acetate (MA), which is currently most commonly prescribed for cancer cachexia patients in clinical practice, at a dose of 160 mg/kg (=800 mg [daily human dose]/60 kg [average human body weight]×12 [dose equivalent factor based on human:mouse body surface area ratio], once daily for 9 days.\nas §1"}, "GDF-15": {"tested_on": "GDF-15", "test": "GDF-15 by ELISA in C57BL/6 mice with Lewis lung carcinoma-induced cachexia", "settings": "Lewis lung carcinoma-injected, paeoniflorin orally for 9 days, FIG. 18", "description": "Each mouse of the control group was injected subcutaneously with 100 μL of saline solution. For the cachexia-induced groups, Lewis lung carcinoma cells (C57BL/6 mice) or colon-26 carcinoma cells (Balb/c mice) were injected subcutaneously into the flank area of each mouse at a dose of 10^6 cells/100 μL/mouse. […] After completion of 9 days of administration, the muscle strength of the mice was measured using a grip strength test device (Bioseb, USA), and the endurance of the mice was measured using a treadmill device (Columbus Instrument, USA).\nAfter completion of the experiment, the mice were euthanized, blood was collected therefrom, the body weight excluding tumors, and the weights of the hind limb gastrocnemius muscle and quadriceps muscle were measured. GDF-15 in the serum was quantified by ELISA.\nAfter oral administration of paeoniflorin to the tumor-induced mice for 9 days, blood was collected from the mice, and the plasma concentration of GDF-15 protein was analyzed by ELISA."}, "TNF-α, IL-6 and IL-1β": {"tested_on": "TNF-α, IL-6 and IL-1β", "test": "Protein levels of pro-inflammatory cytokines in gastrocnemius muscle, Balb/c mice", "settings": "cisplatin-treated", "description": "as §1\nThe levels of TNF-α and interleukin (IL)-6 were measured using respective mouse ELISA kits (Invitrogen, Waltham, MA, USA). IL-1β and GDF-15 levels were measured using respective Quantikine ELISA kits (R&D Systems, Minneapolis, MN, USA)."}},
  "data": [
    {"smiles": "C[C@@]12C[C@@]3(O)O[C@@H](O1)[C@]1(COC(=O)c4ccccc4)[C@H]3C[C@@]12O[C@@H]1O[C@H](CO)[C@@H](O)[C@H](O)[C@H]1O", "note": "[paeoniflorin]", "values": [
      {"measurement": "MuRF1 protein level", "setting": "[1]; FIG. 6A", "result": "decreased"},
      {"measurement": "MAFbx protein level", "setting": "[1]; FIG. 6B", "result": "decreased"},
      {"measurement": "body weight", "setting": "[2]; Pae 5, Pae 10, Pae 20 (mg/kg orally daily) vs negative control group, FIG. 2A", "result": "increased"},
      {"measurement": "weight of gastrocnemius muscle", "setting": "[2]; Pae 5, Pae 10, Pae 20 vs negative control group, FIG. 2B", "result": "increased"},
      {"measurement": "weight of quadriceps muscle", "setting": "[2]; Pae 5, Pae 10, Pae 20 vs negative control group, FIG. 2C", "result": "increased"},
      {"measurement": "serum concentration of GDF-15", "setting": "GDF-15", "result": "significantly decreased"},
      {"measurement": "TNF-α protein level in the gastrocnemius muscle", "setting": "TNF-α, IL-6 and IL-1β; FIG. 9A", "result": "similarly obtained"},
      {"measurement": "IL-6 protein level in the gastrocnemius muscle", "setting": "TNF-α, IL-6 and IL-1β; FIG. 9B", "result": "similarly obtained"},
      {"measurement": "IL-1β protein level in the gastrocnemius muscle", "setting": "TNF-α, IL-6 and IL-1β; FIG. 9C", "result": "similarly obtained"}
    ]}
  ]
}
